The target in the test is T1, CAMK4 (CaMKIV) (Homo sapiens, UniProt Q16566).
T1 construct: purchased Thermo Fisher Scientific (Life Technologies) SelectScreen
As to the kind of experiment: SelectScreen Z'LYTE. It is filed as biochemical. Put shortly:
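NU5455 was profiled across the SelectScreen Broad panel of kinase activity and binding assays. Z'LYTE reactions such as CSF1R ran at apparent Km ATP, while the Adapta CAMK1 assay used ATP listed as 10. Values are given as percent.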

In general, inhibition refers to the change of the read-out against control, counted positive when it falls.

T1 sequence (Q16566 whole entry): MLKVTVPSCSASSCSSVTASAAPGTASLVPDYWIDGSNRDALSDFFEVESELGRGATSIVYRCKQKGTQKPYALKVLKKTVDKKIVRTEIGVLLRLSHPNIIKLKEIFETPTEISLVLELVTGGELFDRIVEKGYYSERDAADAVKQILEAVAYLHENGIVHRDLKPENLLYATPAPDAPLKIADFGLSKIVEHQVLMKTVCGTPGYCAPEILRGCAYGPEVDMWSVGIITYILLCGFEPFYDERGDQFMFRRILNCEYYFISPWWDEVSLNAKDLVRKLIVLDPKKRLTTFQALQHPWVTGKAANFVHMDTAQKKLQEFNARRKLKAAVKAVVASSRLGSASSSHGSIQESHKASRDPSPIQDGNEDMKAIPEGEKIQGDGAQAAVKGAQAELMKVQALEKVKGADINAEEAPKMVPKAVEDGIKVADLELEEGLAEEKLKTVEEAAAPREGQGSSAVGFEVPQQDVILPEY

As for `CN(C(=O)CN1CCOCC1)c1ccc2sc3c(-c4cccc5c(=O)cc(N6CC7CCC(C6)O7)oc45)cccc3c2c1` [NU5455], the inhibition at 1 µM was -10.4%.

(Values after article PMC6934184, “Selective DNA-PKcs inhibition extends the therapeutic index of localized radiotherapy and chemotherapy” (The Journal of Clinical Investigation, 2019).)
